# Measurements published in ChEMBL document CHEMBL4152339, “Design and synthesis of novel 1H-tetrazol-5-amine based potent antimicrobial agents: DNA topoisomerase IV and gyrase affinity evaluation supported by molecular docking studies” (Eur J Med Chem, 2018).
# Columns and labels:
# Staphylococcus aureus [1] = assay: Antibacterial activity against Staphylococcus aureus NCTC 4163 after 18 hrs by CLSI disc diffusion method; format: functional; details: NCTC 4163, 18 h
# Bacillus cereus = assay: Antibacterial activity against Bacillus cereus ATCC 11778 after 18 hrs by CLSI disc diffusion method; format: functional; details: ATCC 11778, 18 h
# [2] = Selectivity index, ratio of IC50 for human HaCaT cells to MIC for Bacillus subtilis ATCC 6633; format: toxicity; details: read-out: Selectivity Index
# Bacillus spizizenii = assay: Antibacterial activity against Bacillus subtilis ATCC 6633 after 18 hrs by CLSI disc diffusion method; format: functional; details: ATCC 6633, 18 h
# [3] = tested on: Bordetella bronchiseptica; assay: Antibacterial activity against Bordetella bronchiseptica ATCC 4617 after 18 hrs by CLSI disc diffusion method; format: functional; details: ATCC 4617, 18 h
# [4] = tested on: Staphylococcus epidermidis; assay: Antibacterial activity against Staphylococcus epidermidis 510 after 18 hrs by CLSI disc diffusion method; format: functional; details: Staphylococcus epidermidis, 510, 18 h
# [5] = tested on: Staphylococcus epidermidis; assay: Antibacterial activity against Staphylococcus epidermidis 431 after 18 hrs by CLSI disc diffusion method; format: functional; details: Staphylococcus epidermidis, 431, 18 h
# Pseudomonas aeruginosa [6] = assay: Antibacterial activity against Pseudomonas aeruginosa 16m after 18 hrs by CLSI disc diffusion method; format: functional
# [7] = Selectivity index, ratio of IC50 for human HaCaT cells to MIC for Bordetella bronchiseptica ATCC 4617; format: toxicity; details: read-out: Selectivity Index
# HaCaT = assay: Cytotoxicity activity against human HaCaT cells assessed as reduction in cell viability after 72 hrs by MTT assay; format: cell-based
# Staphylococcus aureus [8] = assay: Antibacterial activity against Staphylococcus aureus 495 after 18 hrs by CLSI disc diffusion method; format: functional; details: Staphylococcus aureus, 495, 18 h
# Enterococcus faecalis = assay: Antibacterial activity against Enterococcus faecalis ATCC 29212 after 18 hrs by CLSI disc diffusion method; format: functional; details: ATCC 29212, 18 h
# [9] = tested on: Staphylococcus epidermidis; assay: Antibacterial activity against Staphylococcus epidermidis ATCC 35984 after 18 hrs by CLSI […] method; format: functional; details: ATCC 35984, 18 h
# Enterococcus hirae = assay: Antibacterial activity against Enterococcus hirae ATCC 10541 after 18 hrs by CLSI disc diffusion method; format: functional; details: ATCC 10541, 18 h
# [10] = Selectivity index, ratio of IC50 for human HaCaT cells to MIC for Proteus vulgaris NCTC 4635; format: toxicity; details: read-out: Selectivity Index
# Staphylococcus aureus [11] = assay: Antibacterial activity against Staphylococcus aureus 572 after 18 hrs by CLSI disc diffusion method; format: functional; details: Staphylococcus aureus, 572, 18 h
# Staphylococcus aureus [12] = assay: Antibacterial activity against Staphylococcus aureus 497 after 18 hrs by CLSI disc diffusion method; format: functional; details: Staphylococcus aureus, 497, 18 h
# Escherichia coli [13] = assay: Antibacterial activity against Escherichia coli ML 16 after 18 hrs by CLSI disc diffusion method; format: functional; details: ML 16, 18 h
# Escherichia coli [14] = assay: Antibacterial activity against Escherichia coli ML 17 after 18 hrs by CLSI disc diffusion method; format: functional; details: ML 17, 18 h
# Escherichia coli [15] = assay: Antibacterial activity against Escherichia coli ML 15 after 18 hrs by CLSI disc diffusion method; format: functional; details: ML 15, 18 h
# Escherichia coli [16] = assay: Antibacterial activity against Escherichia coli ML 6 after 18 hrs by CLSI disc diffusion method; format: functional; details: ML 6, 18 h
# Proteus vulgaris = assay: Antibacterial activity against Proteus vulgaris NCTC 4635 after 18 hrs by CLSI disc diffusion method; format: functional; details: NCTC 4635, 18 h
# [17] = Inhibition of Staphylococcus aureus DNA topoisomerase 4 using Kinetoplast DNA as substrate after 30 mins by ethidium bromide staining based agarose gel electrophoresis method
# [18] = tested on: Staphylococcus epidermidis; assay: Antibacterial activity against Staphylococcus epidermidis 469 after 18 hrs by CLSI disc diffusion method; format: functional; details: Staphylococcus epidermidis, 469, 18 h
# [19] = tested on: Staphylococcus epidermidis; assay: Antibacterial activity against Staphylococcus epidermidis 471 after 18 hrs by CLSI disc diffusion method; format: functional; details: Staphylococcus epidermidis, 471, 18 h
# Pseudomonas aeruginosa [20] = assay: Antibacterial activity against Pseudomonas aeruginosa 7m after 18 hrs by CLSI disc diffusion method; format: functional
# Staphylococcus aureus [21] = assay: Antibacterial activity against Staphylococcus aureus ATCC 25923 after 18 hrs by CLSI disc diffusion method; format: functional; details: ATCC 25923, 18 h
# Staphylococcus aureus [22] = assay: Antibacterial activity against Staphylococcus aureus 496 after 18 hrs by CLSI disc diffusion method; format: functional; details: Staphylococcus aureus, 496, 18 h
# Staphylococcus aureus [23] = assay: Antibacterial activity against Staphylococcus aureus 586 after 18 hrs by CLSI disc diffusion method; format: functional; details: Staphylococcus aureus, 586, 18 h
# [24] = Selectivity index, ratio of IC50 for human HaCaT cells to MIC for Enterococcus hirae ATCC 10541; format: toxicity; details: read-out: Selectivity Index
# Staphylococcus aureus [25] = assay: Antibacterial activity against Staphylococcus aureus 498 after 18 hrs by CLSI disc diffusion method; format: functional; details: Staphylococcus aureus, 498, 18 h
# [26] = tested on: Staphylococcus epidermidis; assay: Antibacterial activity against Staphylococcus epidermidis 433 after 18 hrs by CLSI disc diffusion method; format: functional; details: Staphylococcus epidermidis, 433, 18 h
# Micrococcus luteus [27] = assay: Antibacterial activity against Micrococcus luteus ATCC 9341 after 18 hrs by CLSI disc diffusion method; format: functional; details: ATCC 9341, 18 h
# [28] = Selectivity index, ratio of IC50 for human HaCaT cells to MIC for Micrococcus luteus ATCC 10240; format: toxicity; details: read-out: Selectivity Index
# Pseudomonas aeruginosa [29] = assay: Antibacterial activity against Pseudomonas aeruginosa 12m after 18 hrs by CLSI disc diffusion method; format: functional
# DNA gyrase = DNA gyrase (Staphylococcus aureus, UniProt P0A0K8+P20831); assay: Inhibition of Staphylococcus aureus DNA gyrase supercoiling activity using pBR322 DNA as substrate after 30 mins by ethidium bromide staining based agarose gel electrophoresis method; format: protein-complex assay
# Escherichia coli [30] = assay: Antibacterial activity against Escherichia coli ML 9 after 18 hrs by CLSI disc diffusion method; format: functional; details: ML 9, 18 h
# [31] = tested on: Staphylococcus epidermidis; assay: Antibacterial activity against Staphylococcus epidermidis ATCC 12228 after 18 hrs by CLSI disc diffusion method; format: functional; details: ATCC 12228, 18 h
# Pseudomonas aeruginosa [32] = assay: Antibacterial activity against Pseudomonas aeruginosa 31m after 18 hrs by CLSI disc diffusion method; format: functional
# Pseudomonas aeruginosa [33] = assay: Antibacterial activity against Pseudomonas aeruginosa 18m after 18 hrs by CLSI disc diffusion method; format: functional
# Staphylococcus aureus [34] = assay: Antibacterial activity against Staphylococcus aureus ATCC 6538 after 18 hrs by CLSI disc diffusion method; format: functional; details: ATCC 6538, 18 h
# Pseudomonas aeruginosa [35] = assay: Antibacterial activity against Pseudomonas aeruginosa ATCC 15442 after 18 hrs by CLSI disc diffusion method; format: functional; details: ATCC 15442, 18 h
# Pseudomonas aeruginosa [36] = assay: Antibacterial activity against Pseudomonas aeruginosa 11m after 18 hrs by CLSI disc diffusion method; format: functional
# A549 = assay: Cytotoxicity activity against human A549 cells assessed as reduction in cell viability after 72 hrs by MTT assay; format: cell-based; details: A549, 72 h
# [37] = tested on: Staphylococcus epidermidis; assay: Antibacterial activity against Staphylococcus epidermidis 511 after 18 hrs by CLSI disc diffusion method; format: functional; details: Staphylococcus epidermidis, 511, 18 h
# Escherichia coli [38] = assay: Antibacterial activity against Escherichia coli ML 8 after 18 hrs by CLSI disc diffusion method; format: functional; details: ML 8, 18 h
# [39] = Selectivity index, ratio of IC50 for human HaCaT cells to MIC for Staphylococcus aureus NCTC 4163; format: toxicity; details: read-out: Selectivity Index
# Escherichia coli [40] = assay: Antibacterial activity against Escherichia coli ML 12 after 18 hrs by CLSI disc diffusion method; format: functional; details: ML 12, 18 h
# [41] = tested on: Staphylococcus epidermidis; assay: Antibacterial activity against Staphylococcus epidermidis 432 after 18 hrs by CLSI disc diffusion method; format: functional; details: Staphylococcus epidermidis, 432, 18 h
# Escherichia coli [42] = assay: Antibacterial activity against Escherichia coli ML 5 after 18 hrs by CLSI disc diffusion method; format: functional; details: ML 5, 18 h
# Escherichia coli [43] = assay: Antibacterial activity against Escherichia coli ATCC 10538 after 18 hrs by CLSI disc diffusion method; format: functional; details: ATCC 10538, 18 h
# [44] = Selectivity index, ratio of IC50 for human HaCaT cells to MIC for Escherichia coli ATCC 10538; format: toxicity; details: read-out: Selectivity Index
# Micrococcus luteus [45] = assay: Antibacterial activity against Micrococcus luteus ATCC 10240 after 18 hrs by CLSI disc diffusion method; format: functional; details: ATCC 10240, 18 h
# Staphylococcus aureus [46] = assay: Antibacterial activity against Staphylococcus aureus 585 after 18 hrs by CLSI disc diffusion method; format: functional; details: Staphylococcus aureus, 585, 18 h
# Pseudomonas aeruginosa [47] = assay: Antibacterial activity against Pseudomonas aeruginosa 6m after 18 hrs by CLSI disc diffusion method; format: functional
# Pseudomonas aeruginosa [48] = assay: Antibacterial activity against Pseudomonas aeruginosa 10m after 18 hrs by CLSI disc diffusion method; format: functional
# Staphylococcus aureus [49] = assay: Antibacterial activity against Staphylococcus aureus 537 after 18 hrs by CLSI disc diffusion method; format: functional; details: Staphylococcus aureus, 537, 18 h
# [50] = tested on: Staphylococcus epidermidis; assay: Antibacterial activity against Staphylococcus epidermidis 423 after 18 hrs by CLSI disc diffusion method; format: functional; details: Staphylococcus epidermidis, 423, 18 h
# Pseudomonas aeruginosa [51] = assay: Antibacterial activity against Pseudomonas aeruginosa ATCC 27853 after 18 hrs by CLSI disc diffusion method; format: functional; details: ATCC 27853, 18 h
# DNA gyrase, sequence (P0A0K8 whole entry, the tested form may be a part): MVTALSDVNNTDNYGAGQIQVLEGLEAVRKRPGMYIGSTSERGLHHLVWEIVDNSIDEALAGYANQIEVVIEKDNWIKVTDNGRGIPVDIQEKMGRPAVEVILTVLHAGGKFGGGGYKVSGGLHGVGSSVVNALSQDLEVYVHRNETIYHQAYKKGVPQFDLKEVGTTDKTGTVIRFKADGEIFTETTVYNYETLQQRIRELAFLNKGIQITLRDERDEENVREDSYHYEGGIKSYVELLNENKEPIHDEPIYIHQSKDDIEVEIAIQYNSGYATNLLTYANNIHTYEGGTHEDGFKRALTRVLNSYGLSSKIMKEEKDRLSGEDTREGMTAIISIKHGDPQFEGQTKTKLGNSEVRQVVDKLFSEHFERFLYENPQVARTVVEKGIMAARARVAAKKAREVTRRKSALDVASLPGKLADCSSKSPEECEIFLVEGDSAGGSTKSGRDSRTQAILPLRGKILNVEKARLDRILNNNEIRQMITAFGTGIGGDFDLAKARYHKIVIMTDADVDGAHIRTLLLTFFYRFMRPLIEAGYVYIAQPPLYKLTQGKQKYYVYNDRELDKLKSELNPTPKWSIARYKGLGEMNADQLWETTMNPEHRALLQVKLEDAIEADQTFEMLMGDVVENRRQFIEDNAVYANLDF
# DNA gyrase, sequence (P20831 whole entry, the tested form may be a part): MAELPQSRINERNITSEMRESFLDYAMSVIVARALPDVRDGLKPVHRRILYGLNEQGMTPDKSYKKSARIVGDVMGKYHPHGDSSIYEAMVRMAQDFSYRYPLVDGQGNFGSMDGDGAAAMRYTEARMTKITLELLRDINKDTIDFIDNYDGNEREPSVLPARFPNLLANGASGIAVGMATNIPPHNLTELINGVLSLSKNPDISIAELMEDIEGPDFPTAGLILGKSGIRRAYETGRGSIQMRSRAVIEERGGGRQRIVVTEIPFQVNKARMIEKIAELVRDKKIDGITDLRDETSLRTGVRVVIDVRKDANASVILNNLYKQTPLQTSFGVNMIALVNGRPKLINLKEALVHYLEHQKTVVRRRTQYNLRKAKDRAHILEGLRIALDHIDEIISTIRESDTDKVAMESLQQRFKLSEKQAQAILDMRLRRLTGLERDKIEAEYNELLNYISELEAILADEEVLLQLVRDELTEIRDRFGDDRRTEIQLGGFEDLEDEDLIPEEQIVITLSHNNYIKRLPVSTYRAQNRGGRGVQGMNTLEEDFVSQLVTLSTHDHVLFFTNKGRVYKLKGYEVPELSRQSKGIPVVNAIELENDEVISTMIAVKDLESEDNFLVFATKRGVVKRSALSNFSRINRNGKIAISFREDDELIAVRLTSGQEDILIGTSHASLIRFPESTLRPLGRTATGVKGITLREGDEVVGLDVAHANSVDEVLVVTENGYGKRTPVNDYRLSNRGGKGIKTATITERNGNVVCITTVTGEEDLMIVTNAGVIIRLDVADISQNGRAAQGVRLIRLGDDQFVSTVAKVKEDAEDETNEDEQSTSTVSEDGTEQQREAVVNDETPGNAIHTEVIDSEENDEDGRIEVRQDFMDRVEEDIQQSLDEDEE
structure (smiles),measurement,setting,value
Fc1ccc(-n2nnnc2NCc2ccco2)cc1Cl,MIC,Staphylococcus aureus [1],7 µM
same,MIC,Bacillus cereus,3 µM
same,selectivity ratio,[2],28
same,MIC,Bacillus spizizenii,3 µM
same,MIC,[3],7 µM
same,MIC,[4],14 µM
same,MIC,[5],7 µM
same,MIC,Pseudomonas aeruginosa [6],14 µM
same,selectivity ratio,[7],12
same,IC50,HaCaT,84 µM
same,MIC,Staphylococcus aureus [8],7 µM
same,MIC,Enterococcus faecalis,7 µM
same,MIC,[9],3 µM
same,MIC,Enterococcus hirae,14 µM
same,selectivity ratio,[10],84
same,MIC,Staphylococcus aureus [11],14 µM
same,MIC,Staphylococcus aureus [12],14 µM
same,MIC,Escherichia coli [13],7 µM
same,MIC,Escherichia coli [14],7 µM
same,MIC,Escherichia coli [15],54 µM
same,MIC,Escherichia coli [16],54 µM
same,MIC,Proteus vulgaris,1 µM
same,IC50,[17],2.6 µg/mL
same,MIC,[18],7 µM
same,MIC,[19],7 µM
same,MIC,Pseudomonas aeruginosa [20],7 µM
same,MIC,Staphylococcus aureus [21],7 µM
same,MIC,Staphylococcus aureus [22],7 µM
same,MIC,Staphylococcus aureus [23],14 µM
same,selectivity ratio,[24],6
same,MIC,Staphylococcus aureus [25],7 µM
same,MIC,[26],14 µM
same,MIC,Micrococcus luteus [27],1 µM
same,selectivity ratio,[28],84
same,MIC,Pseudomonas aeruginosa [29],7 µM
same,IC50,DNA gyrase,3.06 µM
same,MIC,Escherichia coli [30],14 µM
same,MIC,[31],7 µM
same,MIC,Pseudomonas aeruginosa [32],7 µM
same,MIC,Pseudomonas aeruginosa [33],14 µM
same,MIC,Staphylococcus aureus [34],7 µM
same,MIC,Pseudomonas aeruginosa [35],218 µM
same,MIC,Pseudomonas aeruginosa [36],27 µM
same,IC50,A549,80 µM
same,MIC,[37],14 µM
same,MIC,Escherichia coli [38],7 µM
same,selectivity ratio,[39],12
same,MIC,Escherichia coli [40],54 µM
same,MIC,[41],7 µM
same,MIC,Escherichia coli [42],7 µM
same,MIC,Escherichia coli [43],7 µM
same,selectivity ratio,[44],12
same,MIC,Micrococcus luteus [45],1 µM
same,MIC,Staphylococcus aureus [46],14 µM
same,MIC,Pseudomonas aeruginosa [47],7 µM
same,MIC,Pseudomonas aeruginosa [48],27 µM
same,MIC,Staphylococcus aureus [49],7 µM
same,MIC,[50],14 µM
same,MIC,Pseudomonas aeruginosa [51],7 µM
O=C(O)c1cn(C2CC2)c2cc(N3CCNCC3)c(F)cc2c1=O [CIPROFLOXACIN],IC50,[17],1.7 µg/mL
